Experimental data reported in patent publication US7652037B2, “Methods of lowering lipid levels in a mammal” (City Of Hope, priority 2003, dated 2010).
Marks after values point to notes of the source that are not given here.

Key:
[1] = test system: STZ-Diabetic Rats; experiment: Renal function parameters in STZ-diabetic rats (Example 3); format: in vivo, rat; conditions: for Plasma Creatine / Urinary Albumin / Urinary Albumin/Creatine Ratio: mean ± SD; for decrease of elevated plasma creatinine concentrations: diabetic rats
Experimental: Male Sprague-Dawley rats (about 175 to 200 g) were adapted for one week prior to treatment, then rendered diabetic by intra-peritoneal injection of STZ (65 mg/kg in citrate buffer, pH 4.5) after an overnight fast. Control (non-diabetic) animals were injected with the buffer only. Diabetes was confirmed by measuring the plasma glucose concentrations 7 days after Streptozotocin (STZ)-injection. Only animals with a plasma glucose concentration greater than 20 mmol were classified as diabetic and used in the study. These diabetic rats were divided randomly into an untreated diabetic control group and a diabetic treatment group. The treatment group received an LR compound at 50 mg/l in their drinking water throughout the duration of the study (32 weeks for LR-90; 30 weeks for LR-9 and LR-74). All animals were housed individually and were given free access to food and water.
Blood (from the tail vein) and urine samples were collected from rats for glycemic control analysis and albuminuria measurements. Glycemia was monitored every 8 weeks by measuring plasma glucose and glycated hemoglobin. Plasma or serum also was tested for total cholesterol and total triglycerides. Progression of renal dysfunction was assessed by measuring urinary albumin to creatinine ratio (UA/Cr) and serum or plasma creatinine. For measurement of urinary albumin and creatinine concentrations, rats were housed in metabolic cages for 24 hours and urine was collected in a collection beaker with several drops of toluene to inhibit microbial growth.
Urinary albumin, plasma creatinine concentration, and urinary albumin/creatine ratio (UA/Cr) were used as indicators of renal function.

[2] = Inhibition of copper-catalyzed oxidation of ascorbic acid (Cu2+ chelating activity); conditions: 500 nmol/L CuCl2, 500 μmol/L ascorbic acid, phosphate buffer pH 7.4, 60 minutes; read-out: IC50, concentration that inhibited the rate of AA oxidation by 50%
Experimental: In vitro measurement of the kinetics of inhibition of copper-catalyzed oxidation of ascorbic acid was performed according to the methods of Price et al., J. Biol. Chem. 276:48967-48972, 2001. Briefly, CuCl2 and various concentrations of inhibitor compounds were pre-incubated in chelex-treated 20 mmol/L phosphate buffer, pH 7.4, for 5 minutes. Ascorbic acid then was added (50 μL of 10 mmol/L in water) to initiate the reaction (1 mL total reaction volume). The final concentrations of CuCl2 and ascorbic acid in the reaction were 500 nmol/L and 500 μmol/L, respectively. Aliquots (135 μL) were removed at 0 and 60 minutes and transferred to autoinjector vials containing 15 μL of 10 mmol/l DTPA. Samples were analyzed by reversed phase HPLC on an XTerra™ RP18 column (250 mm×4.6 mm, 5 μm) with an XTerra™ RP18 5 μm guard column using a Waters® 2690 Separator Module equipped with auto-injector and Millenium® 32 software. Solvents and gradient were all used as described in Dillon et al., Life Sci. 72:1583-1594, 2003. The absorbance of ascorbic acid was measured at 244 nm and the peak area was obtained to estimate the percent of ascorbic acid remaining versus time. For each inhibitor compound, the concentration that inhibited the rate of AA oxidation by 50% (IC50), was calculated with respect to the control using Prism™ software.

[3] = test system: Human LDL; experiment: Cu++-mediated LDL oxidation, TBARS (Example 16); conditions: 250 μM compound, followed for 5 hours; control lag phase about 2 hours
Experimental: (§1) Human LDL was isolated from plasma of healthy donors by single vertical spin centrifugation (see Chung et al., Methods Enzymol. 128:181-209, 1986) and used within 24-48 hours of preparation. LDL (50 μg/mL) was incubated at 37° C. in 50 mM chelex-treated phosphate buffer, pH 7.4, alone or in the presence of 5 μM CuCl2 or 5 μM CuCl2 plus various concentrations of the LR compounds. After 5 hours of incubation, aliquots from each reaction mixture were removed for measurement of thiobarbituric acid-reacting substances (TBARS) as described in Satoh, Clin. Chim. Acta 90:37-43, 1978. Briefly, 250 μL of 20% trichloroacetic acid was added to 500 μL of sample aliquot, followed by 750 μL of 1% […]. The samples then were vortexed and incubated in a boiling water bath for 10 minutes. Upon cooling, the samples were centrifuged for 5 minutes at 5000 rpm. Absorbance of the supernatant was taken at 532 nm, and expressed as MDA equivalents using 1,1,3,3-tetramethoxypropane as standards. For fatty acid oxidation studies, linoleic acid (5#mM) was incubated alone or in the presence of 1 mM LR compound in […] phosphate buffer, pH 7.4, for 7 days at 37° C. Aliquots from each reaction mixture were withdrawn periodically for measurement of TBARS as described above.
Results are shown in FIG. 23A, where values are provided as means±SD of two independent experiments (n=4 for each treatment). In separate experiments, the time course for the oxidative modification fo LDL by Cu^++ in the presence of 250 μM compound was followed for 5 hours and aliquots for each time interval were assayed for TBARS. Values in FIG. 23B are means±SD of two independent experiments (n=4 per treatment).

[4] = Kinetics of linoleic acid oxidation, TBARS; conditions: 5 mM linoleic acid, 1 mM compound, pH 7.4, 7 days at 37° C.
Experimental: as §1
Aliquots were withdrawn periodically and assayed by the TBARS method as above. The MDA equivalent was estimated based on standards.

[5] = test system: STZ-Diabetic Rats; experiment: Tail tendon collagen crosslinking, fluorescence (pepsin digestion) and acid solubility; format: in vivo, rat; conditions: diabetic rats compared with untreated diabetic animals
Experimental: Isolation and preparation of tail tendon collagen was performed according to Kochakian et al., Diabetes 45:1694-1700, 1996. The relative degree of crosslinking and AGE formation in collagen was assessed by pepsin digestion and acid solubility. Pepsin digestion was performed as described previously by Stefek et al., Biochim. Biophys. Acta 1502:398-404, 2000. Briefly, collagen samples of 10 mg from individual rats were digested with pepsin (50 μg/mL in 0.5 mol/l acetic acid) for 24 hours at 37° C. After digestion, the samples were centrifuged at 3000 rpm for 30 minutes at 4° C. and the clear supernatant containing the digested collagen was collected. One hundred microliter aliquots of the supernatant were mixed with 900 μL PBS buffer for measurement of the fluorescence of the sample at 365 nm excitation and 418 nm emission. The hydroxyproline content of the supernatant was calculated following acid hydrolysis using a microassay method according to known methods (Creemers et al., Biotechniques 22:656-658, 1997).
The acid solubility of tail tendon collagen was measured by a modification of the method outlined in Yang et al., Arch. Biochem. Biophys. 412:42-46, 2003. Briefly, samples of about 2 mg collagen were weighed and solubilized in 0.05 M acetic acid overnight at 4° C. The suspensions were centrifuged at 20,000 g 60 minutes at 4° C. and the supernatants and pellets were separated for analysis of hydroxyproline content following acid hydrolysis. Acid solubility was calculated as the percentage of hydroxyproline in the supernatant divided by the total hydroxyproline content in the pellet and the supernatant.

[6] = STZ-diabetic (D) rats, LR-90, 32 weeks
[7] = non-diabetic (ND) rats, LR-90, 32 weeks
[8] = STZ-diabetic (D) rats, 30 weeks
[9] = non-diabetic (ND) rats, 30 weeks

Row | Molecule | Plasma Creatine [1, 6] | Urinary Albumin [1, 6] | Urinary Albumin/Creatine Ratio [1, 6] | decrease of elevated plasma creatinine concentrations [1] | Plasma Creatine [1, 7] | Urinary Albumin [1, 7] | Urinary Albumin/Creatine Ratio [1, 7] | IC50 [2] | time course of Cu++-mediated oxidation of LDL [3] | linoleic acid (LA) oxidation, MDA equivalents [4] | fluorescence and crosslinking of tail tendon collagen (pepsin digestion) [5] | Plasma Creatine [1, 8] | Urinary Albumin [1, 8] | Urinary Albumin/Creatine Ratio [1, 8] | Plasma Creatine [1, 9] | Urinary Albumin [1, 9] | Urinary Albumin/Creatine Ratio [1, 9]
1 | methylene bis(4,4′-(2-chlorophenylureidophenoxyisobutyric acid) [LR-90] | 1.50 ± 0.53^c mg/dl | 23.6 ± 4.5^c mg/24 hr | 1.57 ± 0.49^c | ~50% | 0.58 ± 0.07 mg/dL | 8.9 ± 1.5 mg/24 hr | 0.57 ± 0.16 | 275 µM | no observable propagation phase | totally prevented LA oxidation | significant reduction | – | – | – | – | – | –
2 | CC(C)(Oc1ccc(NC(=O)c2ccc3ccccc3c2)cc1)C(=O)O [LR-9, 4-(2-napthylcarboxamido) phenoxyisobutyric acid] | – | – | – | ~50% | – | – | – | 200 µM | significantly inhibited the rate of oxidation after 2 hours | totally prevented LA oxidation | significant reduction | 1.79 ± 0.95^c mg/dl | 18.0 ± 9.1^c mg/24 hr | 1.36 ± 0.93^c | 0.42 ± 0.02 mg/dL | 4.8 ± 2.3 mg/24 hr | 0.33 ± 0.13
3 | CC(Oc1cccc2cccnc12)C(=O)O (stereo not drawn) [LR-74, 2-(8-quinolinoxy) propionic acid] | – | – | – | ~50% | – | – | – | 50 µM | no observable propagation phase | did not totally prevent the oxidation | significant reduction | 1.64 ± 1.07^c mg/dl | 14.3 ± 9.07^c mg/24 hr | 1.23 ± 0.60^c | 0.42 ± 0.05 mg/dL | 4.6 ± 2.4 mg/24 hr | 0.30 ± 0.16
